Patent US20250019400A1, “POLYPEPTIDE AND COSMETIC COMPOSITION OR PHARMACEUTICAL COMPOSITION AND USE THEREOF” (SHENZHEN WINKEY TECHNOLOGY CO., LTD, priority 2022, published 2025)

Tested on: smooth muscle contraction in ileum
Test: Muscle contraction inhibition experiment (acetylcholine-induced smooth muscle contraction in isolated ileum)
Set-up: species or system SD rats
Conditions: after acetylcholine, rat ileum
Excerpt: 10 week old female SD rats weighing 220 g-260 g.
HW-400S constant temperature smooth muscle trough, BL-420E biological function experimental system, tension transducer, and other instruments as conventional experimental instruments.
acetylcholine chloride (Shanghai Yuanye), chloral hydrate (Shanghai Macklin).
• Acetyl octapeptide-3(Ac-Glu-Glu-Met-Gln-Arg-Arg-Ala-Asp-NH2), at a test concentration of 25 ppm, 50 ppm, 100 ppm, and 200 ppm, respectively; • Acetyl hexapeptide-30(Ac-Glu-Asp-Tyr-Tyr-Arg-Leu-NH2), at a test concentration of 25 ppm, 50 ppm, 100 ppm, and 200 ppm, respectively; • the peptide (4), at a test concentration of 25 ppm, 50 ppm, 100 ppm, and 200 ppm, respectively; • the peptide (8), at a test concentration of 25 ppm, 50 ppm, 100 ppm, and 200 ppm, respectively; • the peptide (32), at a test concentration of 100 ppm, 200 ppm, 400 ppm, and 800 ppm, respectively.
The experimental rats were fasted except for water for 12 hours before the experiment. 10% chloral hydrate was injected intraperitoneally into the rats at a dosage of 0.1 mL/25 g, and after the rats were anesthetized, the abdominal cavity was cut open to expose the enlarged cecum. A segment of ileum was taken out from the ileocecal region and washed clean in a tyrode's solution pre-bubbled with oxygen for 10 min, and several 4 cm long segments of ileum were cut and incubated in a tyrode's solution at 4° C. for subsequent use; and both ends of the ileum were tied partially and knotted with cotton threads to form a loop.
The HW-400S constant temperature smooth muscle trough and the BL-420E biological function experimental system were turned on, the tension transducer was connected to channel 1, the incubation temperature was adjusted to 37° C., the instruments were preheated for 0.5 hours, and oxygen was bubbled for more than 10 min. One end of the ileum segment is fixed to the intake bracket port with a cotton thread, and the other end thereof is connected to the tension transducer. The position and height of the transducer were appropriately adjusted to place the excised ileum segment in the center of the smooth muscle trough and then record of ileum activity was started.
After the muscle contraction was stabilized, acetylcholine with a final concentration of 0.1-1 μg/mL was added until a high and stable waveform appears in the muscle activity, and the action lasted for 5 minutes as the initial control. After balancing for 5 minutes, the samples to be tested were added respectively. Each time the test drug was replaced, the ileum segment was replaced with a new one, and relevant data was recorded by the instruments. The inhibition rate of smooth muscle contraction in ileum was calculated according to the following formula:
Inhibition rate of smooth muscle contraction in ileum=(contraction force after acetylcholine administration−contraction force after test sample administration)/contraction force after acetylcholine administration×100%
The experimental data was represented by mean standard deviation (Mean±SD).

Ac-Glu-Asp-Tyr-Tyr-Arg-Leu-NH2 (Ac-EDYYRL-NH2) [Acetyl hexapeptide-30, polypeptide in the prior art used as comparison sample, reference compound]
Inhibition rate of smooth muscle contraction in ileum (25 ppm, Mean±SD): 0.00 ± 2.45%
Inhibition rate of smooth muscle contraction in ileum (50 ppm, Mean±SD): 0.47 ± 2.09%
Inhibition rate of smooth muscle contraction in ileum (100 ppm, Mean±SD): 2.73 ± 0.66%
Inhibition rate of smooth muscle contraction in ileum (200 ppm, Mean±SD): 48.09%

Ac-Glu-Glu-Met-Gln-Arg-Arg-Ala-Asp-NH2 (Ac-EEMQRRAD-NH2) [Acetyl octapeptide-3, polypeptide in the prior art used as comparison sample, reference compound]
Inhibition rate of smooth muscle contraction in ileum (25 ppm, Mean±SD): 10.2 ± 1.23%
Inhibition rate of smooth muscle contraction in ileum (50 ppm, Mean±SD): 32.34%
Inhibition rate of smooth muscle contraction in ileum (100 ppm, Mean±SD): 47.49%
Inhibition rate of smooth muscle contraction in ileum (200 ppm, Mean±SD): 58.67%

Ac-Ser-Met-Gly-Ala-Leu-Ala-NH2 (Ac-SMGALA-NH2) [Peptide (8)]
Inhibition rate of smooth muscle contraction in ileum (25 ppm, Mean±SD): 31.99%
Inhibition rate of smooth muscle contraction in ileum (50 ppm, Mean±SD): 34.35%
Inhibition rate of smooth muscle contraction in ileum (100 ppm, Mean±SD): 56.42%
Inhibition rate of smooth muscle contraction in ileum (200 ppm, Mean±SD): 67.96%

Ac-Trp-Ala-Ala-Pro-Phe-Leu-Arg-Ala-NH2 (Ac-WAAPFLRA-NH2) [(32)]
Inhibition rate of smooth muscle contraction in ileum (800 ppm): 44.41%

Ac-Val-Lys-Val-Leu-Gln-Trp-NH2 (Ac-VKVLQW-NH2) [Peptide (4)]
Inhibition rate of smooth muscle contraction in ileum (25 ppm, Mean±SD): 49.78%
Inhibition rate of smooth muscle contraction in ileum (50 ppm, Mean±SD): 62.40%
Inhibition rate of smooth muscle contraction in ileum (100 ppm, Mean±SD): 66.72%
Inhibition rate of smooth muscle contraction in ileum (200 ppm, Mean±SD): 76.88%
